Reference: PMC9931769, “Bacterial origins of thymidylate metabolism in Asgard archaea and Eukarya” (Nature Communications, 2023)

T1: Psyn ThyX (Promethearchaeum syntrophicum, UniProt A0A5B9D7C8)
T1 sequence (A0A5B9D7C8 1-298): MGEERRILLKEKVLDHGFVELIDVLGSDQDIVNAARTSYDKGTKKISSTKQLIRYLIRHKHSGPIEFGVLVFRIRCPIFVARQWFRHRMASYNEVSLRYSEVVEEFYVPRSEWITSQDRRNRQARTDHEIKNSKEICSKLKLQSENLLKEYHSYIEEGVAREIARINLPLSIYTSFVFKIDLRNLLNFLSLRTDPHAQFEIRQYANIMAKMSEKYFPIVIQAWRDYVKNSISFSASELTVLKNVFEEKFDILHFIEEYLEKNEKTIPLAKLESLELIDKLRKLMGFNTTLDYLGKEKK


Columns and labels:
Psyn ThyX = target: T1, Psyn ThyX; assay: inhibition of NADPH oxidation, absorbance at […] nm; type: biochemical
purified protein = substrate: O=c1ccn([C@H]2C[C@H](O)[C@@H](COP(=O)(O)O)O2)c(=O)[nH]1; assay: purified protein; type: biochemical, Promethearchaeum syntrophicum; conditions: 50 mM sodium phosphate pH 8, 300 mM NaCl, 2 mM MgCl2, 50 μM FAD, 750 μM NADPH, 0.4 μM enzyme, 25 °C

inhibition at 200 µM (Psyn ThyX) [%] | Molecule | Km (purified protein) [µM]
> 50 | Nc1nc2c(c(=O)[nH]1)N[C@@H](CNc1ccc(C(=O)N[C@@H](CCC(=O)O)C(=O)O)cc1)CN2 [H4folate] | 
> 50 | Nc1nc2c(c(=O)[nH]1)N1CN(c3ccc(C(=O)N[C@@H](CCC(=O)O)C(=O)O)cc3)C[C@H]1CN2 [CH2H4folate] | 
 | Psyn ThyX (Promethearchaeum syntrophicum) (protein) MGEERRILLKEKVLDHGFVELIDVLGSDQDIVNAARTSYDKGTKKISSTKQLIRYLIRHKHSGPIEFGVLVFRIRCPIFVARQWFRHRMASYNEVSLRYSEVVEEFYVPRSEWITSQDRRNRQARTDHEIKNSKEICSKLKLQSENLLKEYHSYIEEGVAREIARINLPLSIYTSFVFKIDLRNLLNFLSLRTDPHAQFEIRQYANIMAKMSEKYFPIVIQAWRDYVKNSISFSASELTVLKNVFEEKFDILHFIEEYLEKNEKTIPLAKLESLELIDKLRKLMGFNTTLDYLGKEKK | 0.235 ± 0.035
